Reference: US8846947B2, “Benzimidazoles and related analogs as sirtuin modulators” (GlaxoSmithKline LLC, priority 2008, dated 2014)
Like-named read-outs stand apart in the source and are kept apart here.

Target: T1, SIRT1 (Homo sapiens, UniProt Q96EB6)
T1 sequence (Q96EB6 1-747): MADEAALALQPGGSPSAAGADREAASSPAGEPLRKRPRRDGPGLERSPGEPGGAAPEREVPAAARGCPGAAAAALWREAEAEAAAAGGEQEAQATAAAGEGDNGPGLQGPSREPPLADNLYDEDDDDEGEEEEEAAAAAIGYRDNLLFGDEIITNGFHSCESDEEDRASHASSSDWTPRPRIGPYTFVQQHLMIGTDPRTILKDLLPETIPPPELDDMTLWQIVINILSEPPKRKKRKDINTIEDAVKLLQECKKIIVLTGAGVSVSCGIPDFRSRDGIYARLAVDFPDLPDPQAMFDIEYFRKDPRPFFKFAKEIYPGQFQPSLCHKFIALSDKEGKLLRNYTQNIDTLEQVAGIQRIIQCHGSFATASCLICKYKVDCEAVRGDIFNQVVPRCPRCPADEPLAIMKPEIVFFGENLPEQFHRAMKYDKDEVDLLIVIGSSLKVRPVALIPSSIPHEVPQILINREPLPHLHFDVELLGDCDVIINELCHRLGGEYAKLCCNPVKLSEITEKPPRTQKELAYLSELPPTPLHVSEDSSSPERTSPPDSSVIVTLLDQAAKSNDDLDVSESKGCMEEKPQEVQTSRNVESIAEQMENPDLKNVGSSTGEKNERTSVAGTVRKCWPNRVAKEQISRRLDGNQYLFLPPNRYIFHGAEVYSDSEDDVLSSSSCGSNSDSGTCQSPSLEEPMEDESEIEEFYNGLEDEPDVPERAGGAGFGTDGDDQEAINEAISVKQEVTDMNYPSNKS
Assay: Mass spectrometry based SIRT1 deacetylase activation assay (acetylated p53-derived peptide substrate)
Assay type: biochemical

[1] = 0.5 μM peptide substrate, 120 μM βNAD+, 10 nM SIRT1, 25 minutes at 25° C.
[2] = 0.5 μM peptide substrate, 120 μM βNAD+, 10 nM SIRT1, 25 min at 25° C.
[3] = 0.5 μM peptide substrate, 120 μM βNAD+, 10 nM SIRT1, 25 min at 25° C., read-out: EC1.5

| EC1.5 [1] | Fold Act. (percent maximum fold activation) [1] | EC1.5 | Fold Act. (percent maximum fold activation) | SMILES | other results |
| --- | --- | --- | --- | --- | --- |
| A (EC1.5<1.0 uM) | A (Fold activation >200%) | – | – | Cc1ccc(NC(=O)c2cccc3[nH]c(-c4ccc(CN5CCCC5)cc4C(F)(F)F)nc23)cc1 [Compound 870, 2-(4-(pyrrolidin-1-ylmethyl)-2-(trifluoromethyl)phenyl)-N-p-tolyl-1H-benzo[d]imidazole-4-carboxamide] | – |
| A (EC1.5<1.0 uM) | A (Fold activation >200%) | – | – | O=C(Nc1nccs1)c1cncc2[nH]c(-c3ccc(N4CCCC4)cc3C(F)F)nc12 [Compound 799] | – |
| – | – | A (EC1.5<1.0 uM) | A (Fold activation >200%) | O=C(Nc1cccnc1)c1cccc2[nH]c(-c3cc(F)ccc3C(F)(F)F)nc12 [Compound 317] | – |
| – | – | – | – | Cc1cc(C)nc(NC(=O)c2cccc3[nH]c(-c4cccc(N5CCOCC5)c4)nc23)c1 [Compound 398] | Fold Act. (percent maximum fold activation) [2]: A (Fold activation >200%); EC1.5 [3]: < 1000 nM |
| – | – | B (EC1.5 1-25 uM) | A (Fold activation >200%) | O=C(Nc1cccc2[nH]c(-c3cccc(N4CCOCC4)c3)nc12)c1ccccn1 [Compound 367] | – |
| A (EC1.5<1.0 uM) | A (Fold activation >200%) | – | – | O=C(Nc1cccc(OC2CCNCC2)c1)c1cccc2[nH]c(-c3ccc(Cl)cc3C(F)(F)F)nc12 [Compound 598] | – |
| A (EC1.5<1.0 uM) | A (Fold activation >200%) | – | – | O=C(Nc1ccccn1)c1cncc2[nH]c(-c3ccc(OC[C@@H](O)CO)cc3C(F)(F)F)nc12 [Compound 760] | – |
| A (EC1.5<1.0 uM) | A (Fold activation >200%) | – | – | O=C(Nc1cccnc1)c1cc(F)cc2[nH]c(-c3ccc(OC[C@@H](O)CO)cc3C(F)F)nc12 [Compound 841] | – |
| – | – | – | – | Cc1cc(NC(=O)c2cccc3[nH]c(-c4cnc5c(c4)OCCN5C)nc23)n(C)n1 [Compound 523] | Fold Act. (percent maximum fold activation) [2]: B (Fold Activation <200%); EC1.5 [3]: > 25000 nM |
| – | – | B (EC1.5 1-25 uM) | A (Fold activation >200%) | Cc1cc(NC(=O)c2cccc3[nH]c(-c4cccc(C(F)(F)F)c4)nc23)no1 [Compound 299] | – |
| – | – | B (EC1.5 1-25 uM) | A (Fold activation >200%) | O=C(Nc1nccs1)c1cccc2[nH]c(-c3cccc(F)c3)nc12 [Compound 212] | – |
| B (EC1.5 1-25 uM) | A (Fold activation >200%) | – | – | Cc1cccc(-c2nc3c(C(=O)Nc4nccs4)cccc3[nH]2)c1OCCN1CCOCC1 [Compound 626] | – |
| – | – | – | – | O=C(Nc1cccnc1)c1cccc2[nH]c(-c3ccc(OC4CCNCC4)cc3)nc12 [Compound 536] | Fold Act. (percent maximum fold activation) [2]: A (Fold activation >200%); EC1.5 [3]: 1000 to 25000 nM |
| A (EC1.5<1.0 uM) | A (Fold activation >200%) | – | – | O=C(Nc1ccc(CN2CCOCC2)cn1)c1cccc2[nH]c(-c3ccc(Cl)cc3C(F)(F)F)nc12 [Compound 676] | – |
| – | – | A (EC1.5<1.0 uM) | A (Fold activation >200%) | Cc1cnc(NC(=O)c2cccc3[nH]c(-c4cccc(N5CCOCC5)c4)nc23)s1 [Compound 396] | – |
| – | – | A (EC1.5<1.0 uM) | A (Fold activation >200%) | CN1CCOc2cc(-c3nc4c(C(=O)Nc5nccs5)cccc4[nH]3)cnc21 [Compound 371] | – |
| A (EC1.5<1.0 uM) | A (Fold activation >200%) | – | – | O=C(Nc1cccnc1)c1cncc2nc(-c3ccc(N4CCCC4)cc3C(F)F)[nH]c12 [Compound 812] | – |
| – | – | B (EC1.5 1-25 uM) | A (Fold activation >200%) | O=C(Nc1nccs1)c1cccc2[nH]c(-c3cccnc3N3CCOCC3)nc12 [Compound 250, 2-(2-morpholinopyridin-3-yl)-N-(thiazol-2-yl)-1H-benzo[d]imidazole-4-carboxamide] | – |
| A (EC1.5<1.0 uM) | A (Fold activation >200%) | – | – | O=C(Nc1cccc(CN2CCOCC2)n1)c1cccc2[nH]c(-c3ccccc3F)nc12 [Compound 854] | – |
| – | – | – | – | Cc1cc(C)nc(NC(=O)c2cccc3[nH]c(-c4cnc5c(c4)OCCN5C)nc23)c1 [Compound 461] | Fold Act. (percent maximum fold activation) [2]: A (Fold activation >200%); EC1.5 [3]: < 1000 nM |
| – | – | B (EC1.5 1-25 uM) | A (Fold activation >200%) | Cc1csc(NC(=O)c2cccc3[nH]c(-c4cccc(C(F)(F)F)c4)nc23)n1 [Compound 206] | – |

| EC1.5 [1] | Fold Act. (percent maximum fold activation) [1] | EC1.5 | Fold Act. (percent maximum fold activation) | SMILES | other results |
| --- | --- | --- | --- | --- | --- |
| – | – | A (EC1.5<1.0 uM) | A (Fold activation >200%) | Cc1cc(C)nc(NC(=O)c2cccc3[nH]c(-c4ccccc4C(F)(F)F)nc23)c1 [Compound 345] | – |
| C (EC1.5 >25 uM) | B (Fold Activation <200%) | – | – | O=C(Nc1ccccn1)c1cccc2[nH]c(-c3ccccc3OCCN3CCC(F)(F)C3)nc12 [Compound 615] | – |
| – | – | – | – | O=C(Nc1cccnn1)c1cccc2[nH]c(-c3ccc(N4CCOCC4)cc3C(F)(F)F)nc12 [Compound 550] | Fold Act. (percent maximum fold activation) [2]: A (Fold activation >200%); EC1.5 [3]: < 1000 nM |
| – | – | – | – | O=C(Nc1cccc(OC2CCNC2)c1)c1cccc2[nH]c(-c3ccccc3C(F)(F)F)nc12 (stereo not shown) [Compound 526] | Fold Act. (percent maximum fold activation) [2]: A (Fold activation >200%); EC1.5 [3]: < 1000 nM |
| – | – | B (EC1.5 1-25 uM) | A (Fold activation >200%) | O=C(Nc1ccc(Cl)cn1)c1cccc2[nH]c(-c3cccc(C(F)(F)F)c3)nc12 [Compound 285] | – |
| – | – | A (EC1.5<1.0 uM) | A (Fold activation >200%) | Cc1nn(-c2ccccc2)c(C)c1-c1nc2c(C(=O)Nc3nccs3)cccc2[nH]1 [Compound 291] | – |
| – | – | A (EC1.5<1.0 uM) | A (Fold activation >200%) | O=C(Nc1nccs1)c1cccc2[nH]c(-c3ccc(-c4nnn[nH]4)cc3)nc12 [Compound 348] | – |
| – | – | – | – | O=C(Nc1nccs1)c1cccc2[nH]c(-c3ccccc3OC3CCNC3)nc12 (stereo not shown) [Compound 459, 2-(2-(pyrrolidin-3-yloxy)phenyl)-N-(thiazol-2-yl)-1H-benzo[d]imidazole-4-carboxamide] | Fold Act. (percent maximum fold activation) [2]: A (Fold activation >200%); EC1.5 [3]: 1000 to 25000 nM |
| – | – | B (EC1.5 1-25 uM) | A (Fold activation >200%) | O=C(Nc1cccc2[nH]c(-c3cccc(N4CCOCC4)c3)nc12)c1cscn1 [Compound 391] | – |
| – | – | B (EC1.5 1-25 uM) | B (Fold Activation <200%) | O=C(Nc1nccs1)c1cccc2[nH]c(-c3nccs3)nc12 [Compound 238] | – |
| – | – | – | – | O=C(Nc1nccs1)c1cccc2[nH]c(-c3ccc(N4CCOCC4)cc3C(F)F)nc12 [Compound 551, 2-(2-(difluoromethyl)-4-morpholinophenyl)-N-(thiazol-2-yl)-1H-benzo[d]imidazole-4-carboxamide] | Fold Act. (percent maximum fold activation) [2]: A (Fold activation >200%); EC1.5 [3]: < 1000 nM |
| A (EC1.5<1.0 uM) | A (Fold activation >200%) | – | – | O=C(Nc1cccnc1)c1cccc2[nH]c(-c3ccc(OCCN4CCOCC4)cc3C(F)F)nc12 [Compound 724] | – |
| A (EC1.5<1.0 uM) | A (Fold activation >200%) | – | – | Cc1cnc(NC(=O)c2cccc3[nH]c(-c4cnccc4C(F)(F)F)nc23)s1 [Compound 703, N-(5-methylthiazol-2-yl)-2-(4-(trifluoromethyl)pyridin-3-yl)-1H-benzo[d]imidazole-4-carboxamide] | – |
| A (EC1.5<1.0 uM) | A (Fold activation >200%) | – | – | O=C(Nc1nccs1)c1cc(N2CCOCC2)cc2[nH]c(-c3ccccc3C(F)F)nc12 [Compound 734] | – |
| – | – | – | – | O=C(Nc1nccs1)c1cccc2[nH]c(-c3ccc(OC4CCNCC4)cc3)nc12 [Compound 447] | Fold Act. (percent maximum fold activation) [2]: A (Fold activation >200%); EC1.5 [3]: < 1000 nM |
| C (EC1.5 >25 uM) | B (Fold Activation <200%) | – | – | FC(F)(F)c1cc(Cl)ccc1-c1nc2c(NCc3cccnc3)cccc2[nH]1 [Compound 669] | – |
| B (EC1.5 1-25 uM) | A (Fold activation >200%) | – | – | O=C(Nc1ccccn1)c1cccc2nc(-c3ccc(N4CCCC4)cc3C(F)F)[nH]c12 [Compound 766] | – |
| C (EC1.5 >25 uM) | B (Fold Activation <200%) | – | – | Fc1ccc(C(F)(F)F)c(-c2nc3c(NCc4cccnc4)cccc3[nH]2)c1 [Compound 670] | – |
| A (EC1.5<1.0 uM) | A (Fold activation >200%) | – | – | Cc1cnc(NC(=O)c2cncc3[nH]c(-c4ccc(N5CCCC5)cc4C(F)F)nc23)s1 [Compound 800] | – |
| A (EC1.5<1.0 uM) | A (Fold activation >200%) | – | – | Cc1cnc(NC(=O)c2cc(F)cc3nc(-c4ccc(F)cc4C(F)F)[nH]c23)s1 [Compound 825] | – |
